In PMC5218480 (PLoS ONE, 2017):

Tested on: MV-4-11 cells
Experiment: Gene expression microarray analysis (Affymetrix PrimeView) and GSEA
Assay type: cell-based, human
Parameters: RFU PODN (11730768_x_at) / Fold change /veh PODN (11730768_x_at) / RFU LINC00158 (11744669_a_at) / Fold change /veh LINC00158 (11744669_a_at) / RFU DUSP10 (11751237_a_at) / Fold change /veh DUSP10 (11751237_a_at) / RFU ID3 (11757404_x_at) / Fold change /veh ID3 (11757404_x_at) / RFU PLEKHG5 (11737974_s_at) / Fold change /veh PLEKHG5 (11737974_s_at) / RFU LRRC4B (11730491_at) / Fold change /veh LRRC4B (11730491_at) / RFU GIMAP4 (11747438_a_at) / Fold change /veh GIMAP4 (11747438_a_at) / RFU KRT8 (11758183_x_at) / Fold change /veh KRT8 (11758183_x_at) / RFU CNN1 (11734310_a_at) / Fold change /veh CNN1 (11734310_a_at) / RFU VPS37D (11726825_at) / Fold change /veh VPS37D (11726825_at) / RFU C10orf10 (11716522_x_at) / Fold change /veh C10orf10 (11716522_x_at) / RFU KIR2DL2 /// KIR2DL4 /// KIR2DL5A /// KIR2DL5B /// KIR2DS1 /// KIR2DS2 /// KIR2DS3 /// KIR2DS4 /// KIR3DL3 /// KIR3DL3 /// KIR3DS1 (11738374_at) / Fold change /veh KIR2DL2 /// KIR2DL4 /// KIR2DL5A /// KIR2DL5B /// KIR2DS1 /// KIR2DS2 /// KIR2DS3 /// KIR2DS4 /// KIR3DL3 /// KIR3DL3 /// KIR3DS1 (11738374_at) / RFU C1QL1 (11718748_at) / Fold change /veh C1QL1 (11718748_at) / RFU TMPRSS4 (11747572_a_at) / Fold change /veh TMPRSS4 (11747572_a_at) / RFU HAMP (11756126_x_at) / Fold change /veh HAMP (11756126_x_at) / RFU RNFT2 (11725882_a_at) / Fold change /veh RNFT2 (11725882_a_at) / RFU NR4A2 (11747474_a_at) / Fold change /veh NR4A2 (11747474_a_at) / RFU ABCC12 (11746883_a_at) / Fold change /veh ABCC12 (11746883_a_at) / RFU TMEM136 (11760407_x_at) / Fold change /veh TMEM136 (11760407_x_at) / RFU CLDN22 /// WWC2 (11732394_at) / Fold change /veh CLDN22 /// WWC2 (11732394_at) / RFU HLA-DPB1 (11760878_x_at) / Fold change /veh HLA-DPB1 (11760878_x_at) / RFU SPINT1 (11716480_a_at) / Fold change /veh SPINT1 (11716480_a_at) / RFU GAP43 (11754022_s_at) / Fold change /veh GAP43 (11754022_s_at) / RFU A4GNT (11735810_at) / Fold change /veh A4GNT (11735810_at) / RFU PRB3 (11715151_x_at) / Fold change /veh PRB3 (11715151_x_at) / RFU TUBB4B (11761932_at) / Fold change /veh TUBB4B (11761932_at) / RFU CAPN14 (11732068_a_at) / Fold change /veh CAPN14 (11732068_a_at) / RFU TMCC2 (11721928_a_at) / Fold change /veh TMCC2 (11721928_a_at) / RFU IRGQ (11745062_a_at) / Fold change /veh IRGQ (11745062_a_at) / RFU FAM174B (11720279_a_at) / Fold change /veh FAM174B (11720279_a_at) / RFU TMPRSS4 (11748680_a_at) / Fold change /veh TMPRSS4 (11748680_a_at) / RFU FAM212B (11763350_a_at) / Fold change /veh FAM212B (11763350_a_at) / RFU PLEKHG5 (11743358_a_at) / Fold change /veh PLEKHG5 (11743358_a_at) / RFU ZSCAN30 (11745921_a_at) / Fold change /veh ZSCAN30 (11745921_a_at) / RFU CMKLR1 (11741424_a_at) / Fold change /veh CMKLR1 (11741424_a_at) / RFU LOC101060620 /// MAPK8IP1 (11723275_at) / Fold change /veh LOC101060620 /// MAPK8IP1 (11723275_at) / RFU SPTSSB (11747773_x_at) / Fold change /veh SPTSSB (11747773_x_at) / RFU PRSS12 (11739890_at) / Fold change /veh PRSS12 (11739890_at) / RFU BIN1 (11741810_x_at) / Fold change /veh BIN1 (11741810_x_at) / RFU WNT11 (11732464_a_at) / Fold change /veh WNT11 (11732464_a_at) / RFU C10orf10 (11716521_a_at) / Fold change /veh C10orf10 (11716521_a_at) / RFU C5orf56 (11738089_at) / Fold change /veh C5orf56 (11738089_at) / RFU CYB561 (11721691_x_at) / Fold change /veh CYB561 (11721691_x_at) / RFU ANKRD19P (11752326_a_at) / Fold change /veh ANKRD19P (11752326_a_at) / RFU OR2T12 /// OR2T33 /// OR2T8 (11738714_s_at) / Fold change /veh OR2T12 /// OR2T33 /// OR2T8 (11738714_s_at) / RFU VCAN (11748164_a_at) / Fold change /veh VCAN (11748164_a_at) / RFU JSRP1 (11732532_at) / Fold change /veh JSRP1 (11732532_at) / RFU KRTAP10-11 (11738290_x_at) / Fold change /veh KRTAP10-11 (11738290_x_at) / RFU MYO3A (11730013_a_at) / Fold change /veh MYO3A (11730013_a_at) / RFU EBF3 (11725865_a_at) / Fold change /veh EBF3 (11725865_a_at) / RFU CAMK2N1 (11719241_x_at) / Fold change /veh CAMK2N1 (11719241_x_at) / RFU C5orf56 (11738088_a_at) / Fold change /veh C5orf56 (11738088_a_at) / RFU OLFML3 (11715873_a_at) / Fold change /veh OLFML3 (11715873_a_at) / RFU LOC100653217 /// NTM (11731650_a_at) / Fold change /veh LOC100653217 /// NTM (11731650_a_at) / RFU MAPK11 (11762145_a_at) / Fold change /veh MAPK11 (11762145_a_at) / RFU FIZ1 (11724087_x_at) / Fold change /veh FIZ1 (11724087_x_at) / RFU OASL (11726364_x_at) / Fold change /veh OASL (11726364_x_at) / RFU SOX15 (11748057_x_at) / Fold change /veh SOX15 (11748057_x_at) / RFU CD79A (11719716_a_at) / Fold change /veh CD79A (11719716_a_at) / RFU HIST1H1D (11736915_at) / Fold change /veh HIST1H1D (11736915_at) / RFU CASKIN2 (11723855_a_at) / Fold change /veh CASKIN2 (11723855_a_at) / RFU LOC730098 (11760151_x_at) / Fold change /veh LOC730098 (11760151_x_at) / RFU OR4N2 (11742367_at) / Fold change /veh OR4N2 (11742367_at) / RFU PRRT2 (11749266_a_at) / Fold change /veh PRRT2 (11749266_a_at) / RFU SNX32 (11753110_a_at) / Fold change /veh SNX32 (11753110_a_at) / RFU CDHR5 (11726645_a_at) / Fold change /veh CDHR5 (11726645_a_at) / RFU RCAN1 (11760418_a_at) / Fold change /veh RCAN1 (11760418_a_at) / RFU FAM167A (11723789_a_at) / Fold change /veh FAM167A (11723789_a_at) / RFU FAM26E (11764081_at) / Fold change /veh FAM26E (11764081_at) / RFU ISYNA1 (11749810_s_at) / Fold change /veh ISYNA1 (11749810_s_at) / RFU ACY1 (11761880_at) / Fold change /veh ACY1 (11761880_at) / RFU 11764098_at / Fold change /veh 11764098_at / RFU SAMD14 (11745864_x_at) / Fold change /veh SAMD14 (11745864_x_at) / RFU NPB (11741838_a_at) / Fold change /veh NPB (11741838_a_at) / RFU TMPRSS6 (11731388_a_at) / Fold change /veh TMPRSS6 (11731388_a_at) / RFU KRTAP10-2 (11738614_at) / Fold change /veh KRTAP10-2 (11738614_at) / RFU ARHGAP8 /// PRR5-ARHGAP8 (11727945_x_at) / Fold change /veh ARHGAP8 /// PRR5-ARHGAP8 (11727945_x_at) / RFU KRTAP5-7 /// NADSYN1 (11734609_at) / Fold change /veh KRTAP5-7 /// NADSYN1 (11734609_at) / RFU RASL12 (11751679_a_at) / Fold change /veh RASL12 (11751679_a_at) / RFU CDKN2B (11736163_a_at) / Fold change /veh CDKN2B (11736163_a_at) / RFU PRF1 (11729649_at) / Fold change /veh PRF1 (11729649_at) / RFU, ZNF638 /// ZNF638-IT1 / Fold change vs veh, ZNF638 /// ZNF638-IT1 / RFU, PANK3 / Fold change vs veh, PANK3 / RFU, SH3YL1 / Fold change vs veh, SH3YL1 / RFU, ZEB2 / Fold change vs veh, ZEB2 / RFU, NRIP1 / Fold change vs veh, NRIP1 / RFU, PTTG1IP / Fold change vs veh, PTTG1IP / RFU, CAPN2 / Fold change vs veh, CAPN2 / RFU, MED14 / Fold change vs veh, MED14 / RFU, SNORA58 / Fold change vs veh, SNORA58 / RFU, C1orf63 / Fold change vs veh, C1orf63 / RFU, LRRFIP1 / Fold change vs veh, LRRFIP1 / RFU, NDUFAF7 / Fold change vs veh, NDUFAF7 / RFU, SLC12A2 / Fold change vs veh, SLC12A2 / RFU, IBTK / Fold change vs veh, IBTK / RFU, ESF1 / Fold change vs veh, ESF1 / Fold change vs veh, TMEM50B / RFU, TAOK1 / Fold change vs veh, TAOK1 / RFU, ACBD3 / Fold change vs veh, ACBD3 / RFU, TMA16 / Fold change vs veh, TMA16 / RFU, RWDD3 / Fold change vs veh, RWDD3 / RFU, BCAT1 / Fold change vs veh, BCAT1 / RFU, EDEM3 / Fold change vs veh, EDEM3 / RFU, TMEM33 / Fold change vs veh, TMEM33 / RFU, WDR75 / Fold change vs veh, WDR75 / RFU, AHCTF1 / Fold change vs veh, AHCTF1 / RFU, TFRC / Fold change vs veh, TFRC / RFU, ZDHHC17 / Fold change vs veh, ZDHHC17 / RFU, NOM1 / Fold change vs veh, NOM1 / RFU, ARL8B / Fold change vs veh, ARL8B / RFU, ZBTB11 / Fold change vs veh, ZBTB11 / RFU, TAMM41 / Fold change vs veh, TAMM41 / RFU, KIAA1704 /// LOC100996395 / Fold change vs veh, KIAA1704 /// LOC100996395 / RFU, ING1 / Fold change vs veh, ING1 / RFU, TRMT61B / Fold change vs veh, TRMT61B / RFU, FUBP3 / Fold change vs veh, FUBP3 / RFU, TP53 / Fold change vs veh, TP53 / RFU, TNKS2 / Fold change vs veh, TNKS2 / RFU, ZFP14 / Fold change vs veh, ZFP14 / RFU, ACTR2 / Fold change vs veh, ACTR2 / RFU, PPP3R1 / Fold change vs veh, PPP3R1 / RFU, PIK3R1 / Fold change vs veh, PIK3R1 / RFU, HNRNPA1 / Fold change vs veh, HNRNPA1 / RFU, RNF170 / Fold change vs veh, RNF170 / RFU, ZNF28 / Fold change vs veh, ZNF28 / RFU, RNGTT / Fold change vs veh, RNGTT / RFU, OGT / Fold change vs veh, OGT / RFU, BRD1 / Fold change vs veh, BRD1 / RFU, MARS / Fold change vs veh, MARS / RFU, ZNF655 / Fold change vs veh, ZNF655 / RFU, FAHD1 / Fold change vs veh, FAHD1 / RFU, BDP1 / Fold change vs veh, BDP1 / RFU, LRRCC1 / Fold change vs veh, LRRCC1 / RFU, ARID1A / Fold change vs veh, ARID1A / RFU, ZNF146 / Fold change vs veh, ZNF146 / RFU, ZNF330 / Fold change vs veh, ZNF330 / RFU, GPN3 / Fold change vs veh, GPN3 / RFU, C9orf123 / Fold change vs veh, C9orf123 / RFU, N4BP2L2 / Fold change vs veh, N4BP2L2 / RFU, ARFIP1 / Fold change vs veh, ARFIP1 / RFU, FAM179B / Fold change vs veh, FAM179B / RFU, BCL10 / Fold change vs veh, BCL10 / RFU, UHRF1BP1L / Fold change vs veh, UHRF1BP1L / RFU, BET1 / Fold change vs veh, BET1 / RFU, CNOT2 / Fold change vs veh, CNOT2 / RFU, ZNF268 / Fold change vs veh, ZNF268 / Fold change vs veh, ZNF507 / RFU, DGCR2 / Fold change vs veh, DGCR2 / RFU, WDSUB1 / Fold change vs veh, WDSUB1 / Fold change vs veh, HSP90B1 /// MIR3652 / RFU, ADSS / Fold change vs veh, ADSS / RFU, GK / Fold change vs veh, GK / RFU, ZNF148 / Fold change vs veh, ZNF148 / RFU, TAF9 / Fold change vs veh, TAF9 / RFU, SLC1A5 / Fold change vs veh, SLC1A5 / RFU, SLMO2 / Fold change vs veh, SLMO2 / RFU, ABCC4 / Fold change vs veh, ABCC4 / RFU, LOC101060439 /// RAP1B / Fold change vs veh, LOC101060439 /// RAP1B / RFU, RFX7 / Fold change vs veh, RFX7 / RFU, GTPBP10 / Fold change vs veh, GTPBP10 / RFU, CNEP1R1 / Fold change vs veh, CNEP1R1 / RFU, BIVM-ERCC5 /// ERCC5 / Fold change vs veh, BIVM-ERCC5 /// ERCC5 / RFU, ILF3 / Fold change vs veh, ILF3 / RFU 11762660_at / Fold change /veh 11762660_at / RFU VCAN (11757783_s_at) / Fold change /veh VCAN (11757783_s_at) / RFU DDX43 (11728927_at) / Fold change /veh DDX43 (11728927_at) / RFU KRT8 (11758188_x_at) / Fold change /veh KRT8 (11758188_x_at) / RFU NKD1 (11759106_at) / Fold change /veh NKD1 (11759106_at) / RFU SRD5A1 (11742802_a_at) / Fold change /veh SRD5A1 (11742802_a_at) / RFU TPSAB1 /// TPSB2 (11721975_s_at) / Fold change /veh TPSAB1 /// TPSB2 (11721975_s_at) / RFU GSTM3 (11746129_a_at) / Fold change /veh GSTM3 (11746129_a_at) / RFU IL23R (11737362_x_at) / Fold change /veh IL23R (11737362_x_at) / RFU TMEM51 (11727254_a_at) / Fold change /veh TMEM51 (11727254_a_at) / RFU PIWIL2 (11732686_x_at) / Fold change /veh PIWIL2 (11732686_x_at) / RFU ORM1 (11744905_x_at) / Fold change /veh ORM1 (11744905_x_at) / RFU CCDC152 (11743942_at) / Fold change /veh CCDC152 (11743942_at) / RFU ECM1 (11717891_a_at) / Fold change /veh ECM1 (11717891_a_at) / RFU IL23R (11748794_a_at) / Fold change /veh IL23R (11748794_a_at) / RFU TNFAIP8L3 (11732012_x_at) / Fold change /veh TNFAIP8L3 (11732012_x_at) / RFU MBOAT4 (11741988_at) / Fold change /veh MBOAT4 (11741988_at) / RFU 11764193_at / Fold change /veh 11764193_at / RFU TMEM53 (11763286_at) / Fold change /veh TMEM53 (11763286_at) / RFU MAGEB2 (11727129_at) / Fold change /veh MAGEB2 (11727129_at) / RFU TMEM200A (11744735_a_at) / Fold change /veh TMEM200A (11744735_a_at) / RFU CCDC152 (11751479_a_at) / Fold change /veh CCDC152 (11751479_a_at) / RFU FAM211A (11726209_a_at) / Fold change /veh FAM211A (11726209_a_at) / RFU RGS16 (11746705_a_at) / Fold change /veh RGS16 (11746705_a_at) / RFU VCAN (11755009_s_at) / Fold change /veh VCAN (11755009_s_at) / RFU RHOB (11743442_s_at) / Fold change /veh RHOB (11743442_s_at) / RFU RGS16 (11720943_a_at) / Fold change /veh RGS16 (11720943_a_at) / RFU RGS16 (11720944_at) / Fold change /veh RGS16 (11720944_at) / RFU, VPS4B / Fold change vs veh, VPS4B / RFU, CREB1 / Fold change vs veh, CREB1 / RFU, DNAJC13 / Fold change vs veh, DNAJC13 / RFU, GNAQ / Fold change vs veh, GNAQ / RFU, CDK5R1 / Fold change vs veh, CDK5R1 / RFU, ZRANB3 / Fold change vs veh, ZRANB3 / RFU, CUL4A / Fold change vs veh, CUL4A / RFU, CCNY / Fold change vs veh, CCNY / RFU, UFL1 / Fold change vs veh, UFL1 / RFU, COG3 / Fold change vs veh, COG3 / RFU, DIAPH2 / Fold change vs veh, DIAPH2 / RFU, SKA2 / Fold change vs veh, SKA2 / RFU, AFF3 / Fold change vs veh, AFF3 / RFU, LMF1 / Fold change vs veh, LMF1 / RFU, IPO11 / Fold change vs veh, IPO11 / RFU, DFFB / Fold change vs veh, DFFB / RFU, FOXP1 / Fold change vs veh, FOXP1 / RFU, CARD8 / Fold change vs veh, CARD8 / RFU, STRN3 / Fold change vs veh, STRN3 / RFU, ADK / Fold change vs veh, ADK / RFU, RASSF2 / Fold change vs veh, RASSF2 / RFU, WIPF1 / Fold change vs veh, WIPF1 / RFU, LARP1B / Fold change vs veh, LARP1B / RFU, RASA1 / Fold change vs veh, RASA1 / RFU, RB1 / Fold change vs veh, RB1 / RFU, PPFIA1 / Fold change vs veh, PPFIA1 / RFU, MAT2A / Fold change vs veh, MAT2A / RFU, CCT5 / Fold change vs veh, CCT5 / RFU, WDR92 / Fold change vs veh, WDR92 / RFU, CUX1 / Fold change vs veh, CUX1 / RFU, TTC7A / Fold change vs veh, TTC7A / RFU, TMEM135 / Fold change vs veh, TMEM135 / RFU, DEPTOR / Fold change vs veh, DEPTOR / RFU, CPM / Fold change vs veh, CPM / RFU, DNAJB6 / Fold change vs veh, DNAJB6 / RFU, CACNA2D3 / Fold change vs veh, CACNA2D3 / RFU, DTX4 / Fold change vs veh, DTX4 / RFU, TFCP2 / Fold change vs veh, TFCP2 / RFU, GMCL1 /// GMCL1P1 / Fold change vs veh, GMCL1 /// GMCL1P1 / RFU, AEBP2 / Fold change vs veh, AEBP2 / RFU, SNHG1 /// SNORD22 /// SNORD25 /// SNORD26 /// SNORD27 /// SNORD28 /// SNORD29 /// SNORD31 / Fold change vs veh, SNHG1 /// SNORD22 /// SNORD25 /// SNORD26 /// SNORD27 /// SNORD28 /// SNORD29 /// SNORD31 / Fold change (Aza/veh), C12orf56 (ProbeSet 11735607_a_at) / Fold change (ACY-1035/veh), C12orf56 (ProbeSet 11735607_a_at) / Fold change (Aza/veh), FGFR1OP (ProbeSet 11751329_s_at) / Fold change (ACY-1035/veh), FGFR1OP (ProbeSet 11751329_s_at) / Fold change (Aza/veh), VPS36 (ProbeSet 11739960_a_at) / Fold change (ACY-1035/veh), VPS36 (ProbeSet 11739960_a_at) / RFU SYPL1 (11715823_x_at) / Fold change /veh SYPL1 (11715823_x_at) / RFU IGFBP7 (11715501_s_at) / Fold change /veh IGFBP7 (11715501_s_at) / RFU REEP3 (11722064_at) / Fold change /veh REEP3 (11722064_at) / RFU IGLL1 (11728026_x_at) / Fold change /veh IGLL1 (11728026_x_at): dose or concentration left out as unconfirmed
Settings: MV-4-11 cells, 48 hours

In the case of Nc1ncn([C@@H]2O[C@H](CO)[C@@H](O)[C@H]2O)c(=O)n1 [azacitidine], the “Fold change /veh VCAN (11748164_a_at)” value is reported as 1.17.
